The target of this assay is PPIL4 with GFP-CRBN-DDB1∆B (Homo sapiens, UniProt Q8WUA2+Q96SW2). As to the kind of experiment: TR-FRET ternary complex formation. The format is binding.
Sequence of PPIL4 with GFP-CRBN-DDB1∆B (Q96SW2 whole entry): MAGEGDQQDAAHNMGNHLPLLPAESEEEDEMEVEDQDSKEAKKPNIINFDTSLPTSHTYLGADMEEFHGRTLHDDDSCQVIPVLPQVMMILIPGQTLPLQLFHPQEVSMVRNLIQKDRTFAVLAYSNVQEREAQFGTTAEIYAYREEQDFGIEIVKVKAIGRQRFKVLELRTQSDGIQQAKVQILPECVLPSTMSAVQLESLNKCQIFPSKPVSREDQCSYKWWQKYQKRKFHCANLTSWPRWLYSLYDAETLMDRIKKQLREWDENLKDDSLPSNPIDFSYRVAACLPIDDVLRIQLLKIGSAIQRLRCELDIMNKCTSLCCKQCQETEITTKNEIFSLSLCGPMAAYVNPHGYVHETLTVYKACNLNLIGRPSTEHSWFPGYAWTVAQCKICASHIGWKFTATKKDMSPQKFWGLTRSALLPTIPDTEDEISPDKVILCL
Sequence of PPIL4 with GFP-CRBN-DDB1∆B (Q8WUA2 whole entry): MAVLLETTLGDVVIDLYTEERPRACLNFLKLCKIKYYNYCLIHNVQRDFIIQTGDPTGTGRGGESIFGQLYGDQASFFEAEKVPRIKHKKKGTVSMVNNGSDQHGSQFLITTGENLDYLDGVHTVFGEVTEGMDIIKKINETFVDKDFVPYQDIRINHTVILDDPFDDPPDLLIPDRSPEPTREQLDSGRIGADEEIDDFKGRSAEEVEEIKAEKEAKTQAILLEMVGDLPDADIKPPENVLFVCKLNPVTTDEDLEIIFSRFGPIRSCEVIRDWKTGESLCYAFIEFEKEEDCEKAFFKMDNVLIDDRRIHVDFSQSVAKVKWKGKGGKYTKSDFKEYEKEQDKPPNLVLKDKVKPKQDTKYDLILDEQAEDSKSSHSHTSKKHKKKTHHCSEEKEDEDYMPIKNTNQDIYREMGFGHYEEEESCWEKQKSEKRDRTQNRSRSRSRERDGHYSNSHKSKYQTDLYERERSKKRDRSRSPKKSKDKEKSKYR
Sequence of PPIL4 with GFP-CRBN-DDB1∆B (Q16531 1-395 partner): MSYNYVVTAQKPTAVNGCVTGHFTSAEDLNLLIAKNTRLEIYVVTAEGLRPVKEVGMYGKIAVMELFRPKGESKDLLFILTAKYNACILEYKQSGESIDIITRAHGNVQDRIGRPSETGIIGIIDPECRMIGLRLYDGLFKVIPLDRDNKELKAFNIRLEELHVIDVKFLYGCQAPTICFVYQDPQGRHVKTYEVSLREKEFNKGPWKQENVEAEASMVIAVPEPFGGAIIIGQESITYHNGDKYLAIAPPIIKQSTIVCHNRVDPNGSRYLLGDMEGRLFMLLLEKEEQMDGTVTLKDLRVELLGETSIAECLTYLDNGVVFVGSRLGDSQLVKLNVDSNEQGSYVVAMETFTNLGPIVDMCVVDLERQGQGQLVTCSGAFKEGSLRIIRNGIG
Sequence of PPIL4 with GFP-CRBN-DDB1∆B (Q16531 706-1140 partner): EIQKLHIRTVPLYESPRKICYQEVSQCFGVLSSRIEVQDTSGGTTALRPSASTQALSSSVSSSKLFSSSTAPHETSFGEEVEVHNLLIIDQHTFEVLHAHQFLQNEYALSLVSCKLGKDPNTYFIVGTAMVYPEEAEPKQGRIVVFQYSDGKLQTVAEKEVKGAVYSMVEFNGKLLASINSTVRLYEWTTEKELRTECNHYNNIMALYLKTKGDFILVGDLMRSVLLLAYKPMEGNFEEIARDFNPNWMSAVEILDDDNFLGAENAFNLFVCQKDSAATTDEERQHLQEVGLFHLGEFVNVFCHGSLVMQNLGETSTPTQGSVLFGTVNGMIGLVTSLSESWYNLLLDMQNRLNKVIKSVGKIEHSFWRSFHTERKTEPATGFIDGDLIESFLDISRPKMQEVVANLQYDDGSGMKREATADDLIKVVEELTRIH

A word on the EC50: it is the concentration at which the effect is half-maximal. The low end stands for a more potent agent, the high end for a less potent agent. On to `COc1cscc1-c1cn([C@H]2CCC(=O)NC2=O)nn1` [FPFT-2216], for which the EC50 was 1050 nM.

Values taken from PMC12289921 (Nature Communications, 2025).
